{"source": "patent US12084434B2", "about": "(Scorpion Therapeutics, Inc., priority 2021, dated 2024)", "key": {"[1]": {"test_system": "T47D pAKT (S473), PI3Kα H1047R mutation present", "test": "HTRF pAKT-T47D;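 also: assay medium was RPMI with 10% FBS and 0.2 units/ml bovine insulin, without phenol red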", "details": "Homo sapiens, T47D, 1 h, read-out: T47D pAKT IC50 (nM), T47D.1 cells, pAKT (S473) HTRF, 1 hour", "experimental": "Homogenous Time-Resolved Fluorescence (HTRF)—pAKT-T47D\nCompounds were assayed using homogeneous time-resolved fluorescence (HTRF).\nGibco RPMI 1640 Medium, no phenol red; Gibco RPMI 1640 Medium; Gibco Trypsin-EDTA (0.5%), no phenol red; Gibco DPBS; Trypan blue solution 0.4% (Corning); Avantor Seradigm Premium Grade Fetal Bovine Serum (FBS); Greiner 784080-384 well TC treated white plates; pAKT (Ser473) HTRF; Gibco Insulin, human recombinant, zinc solution; Gibco Recovery Cell Culture Freezing Medium; Countess II FL Automated Cell Counter (ThermoFisher); Countess II Slides (ThermoFisher); Microscope; and PHERAstar FSX Microplate Reader (BMG LABTECH, Inc.).\nThe scinamic cell line ID was T47D.1, the HTRF detection was pAKT (S473), a PI3Kα H1047R mutation was present, the seeding density was 5000, the timepoint was 1 hour, and the medium used was RPMI+10% FBS (no phenol red)+0.2 units/ml bovine insulin.\n• The cell density was not permitted to reach 100% confluence. The cells were split 1:5 when they reached ˜80% confluence. • Cells were split twice a week (Mon and Fri). • Cells over passage 18 were not used (˜2 months of maintenance). • Antibiotics were not used for tissue culture maintenance or assays. […] Protocol Day1\nThe procedure was as follows: • 1. Prepared ARP: • a. Stamped 12.5 nL from 10 μmM source plate to destination plate using Echo. Sealed plate immediately and froze at −20° C. if it was not used on the same day. • b. If a frozen ARP was used, the plate was thawed and spun at 1000 rpm×1 min. • 2. Preparation of cells (adherent): • a. Aspirated media from cells. Washed cells with sterile 1XPBS. Aspirated PBS and added appropriate amount of Trypsin. • b. Once cells were fully trypsinized, added appropriate media to resuspend cells. Transferred cells to a 15 mL or 50 mL conical tube. • c. Counted cells on the Countess II Cell Counter. • 3. Plating of cells: • a. Prepared cells at appropriate plating density. Dispensed 12 μL of diluted cells per well of a Greiner 784080-384 well TC treated white plate using a Multidrop Combi to columns 1-23. Added 12 uL of appropriate phenol free media only to column 24. • b. Placed plates in 37° C. tissue culture incubator for appropriate treatment time (refer to “Assay” table). • 4. Prepared HTRF Lysis Buffer • a. Calculate the amount of HTRF lysis buffer master mix needed to perform the desired experiments plus any extra dead volume required for dispensing (4 μL required per well). […] Add 4 uL Lysis buffer master mix to all wells with sample or DMSO. Centrifuge the plates for 1 minute at 1000 rpm. • c. Incubate at room temperature for 30 minutes. • 5. Prepared HTRF Antibody • a."}, "[2]": {"target": "T1, PI3Kα H1047R protein (p110-α H1047R complexed with truncated p85-α) (Homo sapiens, UniProt P42336, H1047R)", "T1 construct": "The protein contained a full-length p110-α subunit harboring the H1047R mutation", "T1 sequence (P42336 whole entry H1047R, the tested form may be a part)": "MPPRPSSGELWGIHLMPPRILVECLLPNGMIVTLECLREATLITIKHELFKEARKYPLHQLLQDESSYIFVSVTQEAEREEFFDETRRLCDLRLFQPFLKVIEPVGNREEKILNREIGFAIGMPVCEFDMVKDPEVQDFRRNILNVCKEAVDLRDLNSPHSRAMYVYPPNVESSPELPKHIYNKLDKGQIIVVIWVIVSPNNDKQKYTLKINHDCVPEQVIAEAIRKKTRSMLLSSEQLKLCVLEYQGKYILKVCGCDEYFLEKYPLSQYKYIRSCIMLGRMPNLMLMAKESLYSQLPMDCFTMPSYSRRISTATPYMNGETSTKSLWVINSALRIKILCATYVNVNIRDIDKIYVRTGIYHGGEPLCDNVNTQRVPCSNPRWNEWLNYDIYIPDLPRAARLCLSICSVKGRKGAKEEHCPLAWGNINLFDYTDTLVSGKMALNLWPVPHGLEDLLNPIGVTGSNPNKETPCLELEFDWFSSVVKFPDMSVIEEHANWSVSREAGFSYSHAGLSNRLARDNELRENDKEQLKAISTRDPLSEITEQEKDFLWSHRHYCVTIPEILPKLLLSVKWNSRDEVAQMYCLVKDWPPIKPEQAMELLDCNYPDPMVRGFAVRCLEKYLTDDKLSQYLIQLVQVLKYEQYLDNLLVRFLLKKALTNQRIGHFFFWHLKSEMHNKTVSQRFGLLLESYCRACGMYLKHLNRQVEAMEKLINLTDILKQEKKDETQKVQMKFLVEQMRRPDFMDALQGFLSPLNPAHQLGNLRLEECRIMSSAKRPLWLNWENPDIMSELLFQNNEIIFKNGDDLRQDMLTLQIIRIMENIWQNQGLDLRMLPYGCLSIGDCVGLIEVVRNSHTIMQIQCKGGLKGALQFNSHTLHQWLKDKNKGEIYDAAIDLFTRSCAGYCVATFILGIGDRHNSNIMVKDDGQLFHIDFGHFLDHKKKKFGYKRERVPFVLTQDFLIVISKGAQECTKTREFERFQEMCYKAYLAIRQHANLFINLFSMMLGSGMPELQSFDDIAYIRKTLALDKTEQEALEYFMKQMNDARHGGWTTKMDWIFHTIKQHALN", "T1 sequence (P27986 322-694 partner limits assumed)": "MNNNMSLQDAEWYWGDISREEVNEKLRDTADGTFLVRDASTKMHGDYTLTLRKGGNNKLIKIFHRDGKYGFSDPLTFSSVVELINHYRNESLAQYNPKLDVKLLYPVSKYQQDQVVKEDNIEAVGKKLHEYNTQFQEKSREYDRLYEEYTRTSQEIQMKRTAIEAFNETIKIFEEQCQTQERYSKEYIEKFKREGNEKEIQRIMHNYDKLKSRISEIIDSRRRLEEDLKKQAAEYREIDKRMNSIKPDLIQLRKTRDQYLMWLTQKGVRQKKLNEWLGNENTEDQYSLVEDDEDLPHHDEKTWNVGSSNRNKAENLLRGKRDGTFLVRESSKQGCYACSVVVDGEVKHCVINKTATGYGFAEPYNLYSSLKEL", "test": "Surface Plasmon Resonance (SPR) binding, wortmannin-blocked protein", "details": "Biacore 8K, ATP site blocked with 1 μM wortmannin, 25° C.", "protocol": "Surface Plasmon Resonance (SPR)\nSPR experiments were performed on a Biacore 8K instrument. A biotinylated recombinant PI3Kα H1047R protein was used in this study. The protein contained a full-length p110-α subunit harboring the H1047R mutation with an N-terminal AviTag, complexed with a truncated p85-α subunit (amino acid residues 322-694). The protein was first incubated with 1 μM wortmannin for 30 min at RT to covalently block the ATP binding site, then immobilized onto a streptavidin sensor chip by flowing the protein through the sensor chip at typically 20 μg/mL concentration and 2 μL/min flow rate for 1200 seconds. Compound binding affinities were measured in the multi-cycle kinetics mode, at 90 μL/min flow rate with 90 seconds association time and 240 seconds dissociation time. The running buffer contained 50 mM Tris, pH 7.5, 150 mM NaCl, 0.01% Brij35, 1 mM DTT, 1 mM MgCl2, 0.05% Tween-20 and 2% DMSO. Temperature was maintained at 25° C. during experiments."}}, "data": [{"smiles": "CCS(=O)(=O)c1ccc(NC(=O)N[C@H](C)c2oc3ccc(F)cc3c2C)cc1", "note": "[Compound 13, (R)-1-(4-(ethylsulfonyl)phenyl)-3-(1-(5-fluoro-3-methylbenzofuran-2-yl)ethyl)urea]", "values": [{"measurement": "IC50", "setting": "[1]", "result": "> 5000", "unit": "nM"}, {"measurement": "Kd", "setting": "[2]", "result": "≥ 0.5", "unit": "µM"}]}, {"smiles": "Cc1c([C@@H](NC(=O)Nc2cccc(C(=O)N(C)C)c2)C(C)C)oc2ccc(F)cc12", "note": "[Compound 22, (S)-3-(3-(1-(5-fluoro-3-methylbenzofuran-2-yl)-2-methylpropyl)ureido)-N,N-dimethylbenzamide]", "values": [{"measurement": "IC50", "setting": "[1]", "result": "1000 to 5000", "unit": "nM"}, {"measurement": "Kd", "setting": "[2]", "result": "< 0.1", "unit": "µM"}]}, {"smiles": "CNC(=O)c1cccc(NC(=O)N[C@H](c2oc3ccc(F)cc3c2C)C(C)C)c1", "note": "[Compound 23, (S)-3-(3-(1-(5-fluoro-3-methylbenzofuran-2-yl)-2-methylpropyl)ureido)-N-methylbenzamide]", "values": [{"measurement": "IC50", "setting": "[1]", "result": "1000 to 5000", "unit": "nM"}, {"measurement": "Kd", "setting": "[2]", "result": "0.25 to 0.5", "unit": "µM"}]}, {"smiles": "Cc1c([C@@H](NC(=O)Nc2cncc(C(N)=O)c2)C(C)C)oc2ccc(F)cc12", "note": "[Compound 24, (S)-5-(3-(1-(5-fluoro-3-methylbenzofuran-2-yl)-2-methylpropyl)ureido) nicotinamide]", "values": [{"measurement": "IC50", "setting": "[1]", "result": "< 1000", "unit": "nM"}, {"measurement": "Kd", "setting": "[2]", "result": "< 0.1", "unit": "µM"}]}, {"smiles": "Cc1c([C@@H](NC(=O)Nc2cncc(S(C)(=O)=O)c2)C(C)C)oc2ccc(F)cc12", "note": "[Compound 27, (S)-1-(1-(5-fluoro-3-methylbenzofuran-2-yl)-2-methylpropyl)-3-(5-(methylsulfonyl)pyridin-3-yl)urea]", "values": [{"measurement": "IC50", "setting": "[1]", "result": "< 1000", "unit": "nM"}, {"measurement": "Kd", "setting": "[2]", "result": "< 0.1", "unit": "µM"}]}, {"smiles": "Cc1c([C@@H](NC(=O)N[C@H]2CCC[C@H](C(N)=O)C2)C(C)C)oc2ccc(F)cc12", "note": "[Compound 31, (1S,3S)-3-(3-((S)-1-(5-fluoro-3-methylbenzofuran-2-yl)-2-methylpropyl)ureido) cyclohexane-1-carboxamide]", "values": [{"measurement": "IC50", "setting": "[1]", "result": "> 5000", "unit": "nM"}, {"measurement": "Kd", "setting": "[2]", "result": "0.25 to 0.5", "unit": "µM"}]}, {"smiles": "Cc1c([C@@H](NC(=O)Nc2ccc3c(c2)CNC3=O)C(C)C)oc2ccc(F)cc12", "note": "[Compound 33, (S)-1-(1-(5-fluoro-3-methylbenzofuran-2-yl)-2-methylpropyl)-3-(1-oxoisoindolin-5-yl)urea]", "values": [{"measurement": "IC50", "setting": "[1]", "result": "< 1000", "unit": "nM"}, {"measurement": "Kd", "setting": "[2]", "result": "< 0.1", "unit": "µM"}]}, {"smiles": "Cc1c([C@@H](NC(=O)Nc2ccc3c(c2)C(=O)NC3)C(C)C)oc2ccc(F)cc12", "note": "[Compound 34, (S)-1-(1-(5-fluoro-3-methylbenzofuran-2-yl)-2-methylpropyl)-3-(3-oxoisoindolin-5-yl)urea]", "values": [{"measurement": "IC50", "setting": "[1]", "result": "1000 to 5000", "unit": "nM"}, {"measurement": "Kd", "setting": "[2]", "result": "< 0.1", "unit": "µM"}]}, {"smiles": "Cc1c([C@@H](NC(=O)Nc2cncc(C#N)c2)C(C)C)oc2ccc(F)cc12", "note": "[Compound 35, (S)-1-(5-cyanopyridin-3-yl)-3-(1-(5-fluoro-3-methylbenzofuran-2-yl)-2-methylpropyl)urea]", "values": [{"measurement": "IC50", "setting": "[1]", "result": "1000 to 5000", "unit": "nM"}, {"measurement": "Kd", "setting": "[2]", "result": "0.25 to 0.5", "unit": "µM"}]}, {"smiles": "Cc1c([C@@H](NC(=O)Nc2cccnc2)C2CC2)oc2ccc(F)cc12", "note": "[Compound 37, (S)-1-(cyclopropyl(5-fluoro-3-methylbenzofuran-2-yl)methyl)-3-(pyridin-3-yl)urea]", "values": [{"measurement": "IC50", "setting": "[1]", "result": "> 5000", "unit": "nM"}, {"measurement": "Kd", "setting": "[2]", "result": "≥ 0.5", "unit": "µM"}]}, {"smiles": "Cc1c([C@@H](NC(=O)Nc2ccc(N)nc2)C(C)C)oc2ccc(F)cc12", "note": "[Compound 38, (S)-1-(6-aminopyridin-3-yl)-3-(1-(5-fluoro-3-methylbenzofuran-2-yl)-2-methylpropyl)urea]", "values": [{"measurement": "IC50", "setting": "[1]", "result": "< 1000", "unit": "nM"}, {"measurement": "Kd", "setting": "[2]", "result": "0.1 to 0.25", "unit": "µM"}]}, {"smiles": "Cc1c([C@@H](NC(=O)Nc2cnc(N)nc2)C(C)C)oc2ccc(F)cc12", "note": "[Compound 39, (S)-1-(2-aminopyrimidin-5-yl)-3-(1-(5-fluoro-3-methylbenzofuran-2-yl)-2-methylpropyl)urea]", "values": [{"measurement": "IC50", "setting": "[1]", "result": "< 1000", "unit": "nM"}, {"measurement": "Kd", "setting": "[2]", "result": "< 0.1", "unit": "µM"}]}, {"smiles": "Cc1c([C@@H](NC(=O)Nc2ccnc(C(N)=O)c2)C(C)C)oc2ccc(F)cc12", "note": "[Compound 40, (S)-4-(3-(1-(5-fluoro-3-methylbenzofuran-2-yl)-2-methylpropyl)ureido)picolinamide]", "values": [{"measurement": "IC50", "setting": "[1]", "result": "1000 to 5000", "unit": "nM"}, {"measurement": "Kd", "setting": "[2]", "result": "0.25 to 0.5", "unit": "µM"}]}, {"smiles": "Cc1c([C@@H](NC(=O)Nc2ccc(C(N)=O)nc2)C(C)C)oc2ccc(F)cc12", "note": "[Compound 41, (S)-5-(3-(1-(5-fluoro-3-methylbenzofuran-2-yl)-2-methylpropyl)ureido)picolinamide]", "values": [{"measurement": "IC50", "setting": "[1]", "result": "< 1000", "unit": "nM"}, {"measurement": "Kd", "setting": "[2]", "result": "< 0.1", "unit": "µM"}]}, {"smiles": "Cc1c([C@@H](NC(=O)N[C@@H]2CCCS(=O)(=O)C2)C(C)C)oc2ccc(F)cc12", "note": "[Compound 43, 1-((R)-1,1-dioxidotetrahydro-2H-thiopyran-3-yl)-3-((S)-1-(5-fluoro-3-methylbenzofuran-2-yl)-2-methylpropyl)urea]", "values": [{"measurement": "IC50", "setting": "[1]", "result": "1000 to 5000", "unit": "nM"}, {"measurement": "Kd", "setting": "[2]", "result": "0.1 to 0.25", "unit": "µM"}]}, {"smiles": "Cc1c([C@@H](NC(=O)N[C@H]2CCCS(=O)(=O)C2)C(C)C)oc2ccc(F)cc12", "note": "[Compound 44, 1-((S)-1,1-dioxidotetrahydro-2H-thiopyran-3-yl)-3-((S)-1-(5-fluoro-3-methylbenzofuran-2-yl)-2-methylpropyl)urea]", "values": [{"measurement": "IC50", "setting": "[1]", "result": "1000 to 5000", "unit": "nM"}, {"measurement": "Kd", "setting": "[2]", "result": "0.25 to 0.5", "unit": "µM"}]}, {"smiles": "Cc1c([C@@H](NC(=O)Nc2cncc(C(N)=O)c2)C2CC2)oc2ccc(F)cc12", "note": "[Compound 45, (S)-5-(3-(cyclopropyl(5-fluoro-3-methylbenzofuran-2-yl)methyl)ureido)nicotinamide]", "values": [{"measurement": "IC50", "setting": "[1]", "result": "1000 to 5000", "unit": "nM"}, {"measurement": "Kd", "setting": "[2]", "result": "0.1 to 0.25", "unit": "µM"}]}, {"smiles": "Cc1c([C@@H](NC(=O)Nc2cn[nH]c2)C(C)C)oc2ccc(F)cc12", "note": "[Compound 47, (S)-1-(1-(5-fluoro-3-methylbenzofuran-2-yl)-2-methylpropyl)-3-(1H-pyrazol-4-yl)urea]", "values": [{"measurement": "IC50", "setting": "[1]", "result": "1000 to 5000", "unit": "nM"}, {"measurement": "Kd", "setting": "[2]", "result": "0.1 to 0.25", "unit": "µM"}]}, {"smiles": "Cc1c([C@@H](NC(=O)Nc2ccc(S(N)(=O)=O)nc2)C2CC2)oc2ccc(F)cc12", "note": "[Compound 48, (S)-5-(3-(cyclopropyl(5-fluoro-3-methylbenzofuran-2-yl)methyl)ureido)pyridine-2-sulfonamide]", "values": [{"measurement": "IC50", "setting": "[1]", "result": "1000 to 5000", "unit": "nM"}, {"measurement": "Kd", "setting": "[2]", "result": "0.1 to 0.25", "unit": "µM"}]}, {"smiles": "Cc1c([C@@H](NC(=O)Nc2cccc(C(N)=O)c2)C(C)C)oc2c(F)cc(F)cc12", "note": "[Compound 52, (S)-3-(3-(1-(5,7-difluoro-3-methylbenzofuran-2-yl)-2-methylpropyl)ureido)benzamide]", "values": [{"measurement": "IC50", "setting": "[1]", "result": "< 1000", "unit": "nM"}, {"measurement": "Kd", "setting": "[2]", "result": "< 0.1", "unit": "µM"}]}, {"smiles": "Cc1c([C@@H](NC(=O)Nc2cncc(C(=O)N(C)C)c2)C(C)C)oc2ccc(F)cc12", "note": "[Compound 56, (S)-5-(3-(1-(5-fluoro-3-methylbenzofuran-2-yl)-2-methylpropyl)ureido)-N,N-dimethylnicotinamide]", "values": [{"measurement": "IC50", "setting": "[1]", "result": "< 1000", "unit": "nM"}, {"measurement": "Kd", "setting": "[2]", "result": "< 0.1", "unit": "µM"}]}, {"smiles": "Cc1c([C@@H](NC(=O)Nc2cnc(C(=O)N(C)C)nc2)C(C)C)oc2ccc(F)cc12", "note": "[Compound 59, (S)-5-(3-(1-(5-fluoro-3-methylbenzofuran-2-yl)-2-methylpropyl)ureido)-N,N-dimethylpyrimidine-2-carboxamide]", "values": [{"measurement": "IC50", "setting": "[1]", "result": "< 1000", "unit": "nM"}, {"measurement": "Kd", "setting": "[2]", "result": "0.1 to 0.25", "unit": "µM"}]}, {"smiles": "CNC(=O)c1cncc(NC(=O)N[C@H](c2oc3ccc(F)cc3c2C)C(C)C)c1", "note": "[Compound 60, (S)-5-(3-(1-(5-fluoro-3-methylbenzofuran-2-yl)-2-methylpropyl)ureido)-N-methylnicotinamide]", "values": [{"measurement": "IC50", "setting": "[1]", "result": "1000 to 5000", "unit": "nM"}, {"measurement": "Kd", "setting": "[2]", "result": "0.1 to 0.25", "unit": "µM"}]}, {"smiles": "Cc1c([C@@H](NC(=O)Nc2cncc(C(=O)N3CCNCC3)c2)C(C)C)oc2ccc(F)cc12", "note": "[Compound 61, (S)-1-(1-(5-fluoro-3-methylbenzofuran-2-yl)-2-methylpropyl)-3-(5-(piperazine-1-carbonyl)pyridin-3-yl)urea]", "values": [{"measurement": "IC50", "setting": "[1]", "result": "1000 to 5000", "unit": "nM"}, {"measurement": "Kd", "setting": "[2]", "result": "0.1 to 0.25", "unit": "µM"}]}, {"smiles": "Cc1c([C@@H](NC(=O)Nc2cncc(C(=O)O)c2)C(C)C)oc2ccc(F)cc12", "note": "[Compound 62, (S)-5-(3-(1-(5-fluoro-3-methylbenzofuran-2-yl)-2-methylpropyl)ureido)nicotinic acid]", "values": [{"measurement": "IC50", "setting": "[1]", "result": "> 5000", "unit": "nM"}, {"measurement": "Kd", "setting": "[2]", "result": "< 0.1", "unit": "µM"}]}]}
